Like-named read-outs stand apart in the source and are kept apart here.
Experiments:
Test in all cases: microbe, parasite or virus in culture
Type in all cases: cell-based, Hepatitis C virus (HCV)
HCV replicon 1AQ30D = conditions: Replicon Assay B
HCV replicon 1B = conditions: Replicon Assay B
HCV replicon 2B = conditions: Replicon Assay A
Procedure, shortened: (§1)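 HCV RNA levels were calculated from Ct values (minus intercept, divided by slope) of a Neo primer/probe standard curve, with cyclophilin quantified the same way. Cells were seeded at 2000/well and incubated with compound for 3 days in 5% serum and 0.5% DMSO.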

HCV replicon 1A = conditions: Replicon Assay A
Procedure, shortened: as §1

HCV replicon 1AY93H = conditions: Replicon Assay A
Procedure, shortened: as §1

[1] = Hepatitis C virus, read-out: 1A Q30D IC50 (nM), replicon 1AQ30D
[2] = Hepatitis C virus, read-out: 2B IC50 (nM), replicon 2B
[3] = Hepatitis C virus, read-out: 1A Y93H IC50 (nM), replicon 1AY93H
[4] = read-out: 1A Q30D IC50, replicon 1AQ30D
[5] = read-out: 1A Y93H IC50, replicon 1AY93H
[6] = read-out: 1A Q30D IC50, HCV replicon 1A Q30D
[7] = read-out: 2B IC50, HCV replicon 2B
[8] = read-out: 1A Y93H IC50, HCV replicon 1A Y93H
[9] = Hepatitis C virus, read-out: 1A Q30D IC50, HCV replicon 1A Q30D
[10] = Hepatitis C virus, HCV replicon 1B

COC(=O)NC(C(=O)N1[C@@H]2C[C@@H]2C[C@H]1c1ncc(-c2ccc3c(c2)cc2n3C(c3ccc(C4CC4)s3)Oc3cc(-c4cnc([C@@H]5CCCN5C(=O)[C@@H](NC(=O)OC)C(C)C)[nH]4)cc(F)c3-2)[nH]1)C1CCOC(C)(C)C1 (stereo partly shown) [Compound 275]
IC50 (HCV replicon 1AQ30D; [1]): 0.023 nM
IC50 (HCV replicon 1B; Hepatitis C virus, replicon 1B): 3.2 pM
IC50 (HCV replicon 2B; [2]): 0.006 nM
IC50 (HCV replicon 1A; Hepatitis C virus, replicon 1A): 1.9 pM
IC50 (HCV replicon 1AY93H; [3]): 0.003 nM

COC(=O)N[C@H](C(=O)N1CCC[C@H]1c1ncc(-c2cc(F)c3c(c2)OC(c2ccc(C(C)C)s2)n2c-3cc3cc(-c4cnc([C@@H]5CCCN5C(=O)[C@@H](NC(=O)OC)C(C)C)[nH]4)ccc32)[nH]1)C(C)C (single isomer, unassigned) [Compound 35]
IC50 (HCV replicon 1AQ30D; [1]): 11.5 nM
IC50 (HCV replicon 1B; Hepatitis C virus, replicon 1B): 1.4 pM
IC50 (HCV replicon 2B; [2]): 1.43 nM
IC50 (HCV replicon 1A; Hepatitis C virus, replicon 1A): 1.7 pM
IC50 (HCV replicon 1AY93H; [3]): 0.62 nM

COC(=O)NC(C(=O)N1CCC[C@H]1c1ncc(-c2ccc3c(c2)cc2n3C(c3ccc(C4CC4)s3)Oc3cc(-c4cnc([C@@H]5CCCN5C(=O)[C@@H](NC(=O)OC)C(C)C)[nH]4)cc(F)c3-2)[nH]1)C1CCO[C@H](C)C1 (single isomer, unassigned) [Compound 138]
IC50 (HCV replicon 1AQ30D; [4]): 0.67 nM
IC50 (HCV replicon 1B; replicon 1B): 1.4 pM
IC50 (HCV replicon 2B; read-out: 2B IC50, replicon 2B): 0.061 nM
IC50 (HCV replicon 1A; replicon 1A): 1.3 pM
IC50 (HCV replicon 1AY93H; [5]): 0.019 nM

COC(=O)NC(C(=O)N1CCC[C@H]1c1ncc(-c2ccc3c(c2)cc2n3C(c3ccc(C4CC4)s3)Oc3cc(-c4cnc([C@@H]5CCCN5C(=O)[C@@H](NC(=O)OC)C(C)C)[nH]4)cc(F)c3-2)[nH]1)C1CCO[C@H](C)C1 (single isomer, unassigned) [Compound 134]
IC50 (HCV replicon 1AQ30D; [4]): 0.015 nM
IC50 (HCV replicon 1B; replicon 1B): 2.6 pM
IC50 (HCV replicon 2B; read-out: 2B IC50, replicon 2B): 0.003 nM
IC50 (HCV replicon 1A; replicon 1A): 2.5 pM
IC50 (HCV replicon 1AY93H; [5]): 0.002 nM

COC(=O)N[C@H](C(=O)N1CCC[C@H]1c1ncc(-c2cc(F)c3c(c2)OC(c2cc4c(s2)CCC4)n2c-3cc3cc(-c4cnc([C@@H]5C[C@H]6C[C@H]6N5C(=O)[C@@H](NC(=O)OC)C5C[C@@H](C)O[C@@H](C)C5)[nH]4)ccc32)[nH]1)C(C)C (single isomer, unassigned) [Compound 553]
IC50 (HCV replicon 1AQ30D; [6]): 0.708 nM
IC50 (HCV replicon 1B; HCV replicon 1B): 48.2 pM
IC50 (HCV replicon 2B; [7]): 0.218 nM
IC50 (HCV replicon 1A; HCV replicon 1A): 44.1 pM
IC50 (HCV replicon 1AY93H; [8]): 0.0396 nM

CCc1ccc(C2Oc3cc(-c4cnc([C@@H]5CCCN5C(=O)[C@@H](NC(=O)OC)C(C)C)[nH]4)cc(C)c3-c3cc4cc(-c5cnc([C@@H]6CCCN6C(=O)[C@@H](NC(=O)OC)C6CCOCC6)[nH]5)ccc4n32)s1 (single isomer, unassigned) [Compound 560]
IC50 (HCV replicon 1AQ30D; [9]): 1.56 nM
IC50 (HCV replicon 1B; [10]): 9.93 pM
IC50 (HCV replicon 2B; Hepatitis C virus, read-out: 2B IC50, HCV replicon 2B): 0.0516 nM
IC50 (HCV replicon 1A; Hepatitis C virus, HCV replicon 1A): 7.1 pM
IC50 (HCV replicon 1AY93H; Hepatitis C virus, read-out: 1A Y93H IC50, HCV replicon 1A Y93H): 0.13 nM

COC(=O)NC(C(=O)N1CCC[C@H]1c1ncc(-c2ccc3c(c2)cc2n3C(c3ccc(C4CCC4)s3)Oc3cc(-c4cnc([C@@H]5CCCN5C(=O)[C@@H](NC(=O)OC)C(C)C)[nH]4)cc(F)c3-2)[nH]1)C1C[C@@H](C)O[C@@H](C)C1 (stereo partly shown) [Compound 374]
IC50 (HCV replicon 1AQ30D; [1]): 0.0221 nM
IC50 (HCV replicon 1B; Hepatitis C virus, replicon 1B): 2.2 pM
IC50 (HCV replicon 2B; [2]): 0.0041 nM
IC50 (HCV replicon 1A; Hepatitis C virus, replicon 1A): 1.5 pM
IC50 (HCV replicon 1AY93H; [3]): 0.0035 nM

CCc1ccc(C2Oc3cc(-c4cnc([C@@H]5CCCN5C(=O)[C@@H](NC(=O)OC)C(C)C)[nH]4)cc(F)c3-c3cc4cc(-c5cnc([C@@H]6CCCN6C(=O)[C@@H](NC(=O)OC)C(C)C)[nH]5)ccc4n32)s1 (stereo partly shown) [Compound 4]
IC50 (HCV replicon 1AQ30D; [1]): 0.347 nM
IC50 (HCV replicon 1B; Hepatitis C virus, replicon 1B): 2 pM
IC50 (HCV replicon 2B; [2]): 0.055 nM
IC50 (HCV replicon 1A; Hepatitis C virus, replicon 1A): 2.2 pM
IC50 (HCV replicon 1AY93H; [3]): 0.01 nM

COC(=O)NC(C(=O)N1CCC[C@@H]1c1ncc(-c2ccc3c(c2)cc2n3C(c3ccc(CC4CC4)s3)Oc3cc(-c4cnc([C@@H]5CCCN5C(=O)[C@@H](NC(=O)OC)C(C)C)[nH]4)cc(F)c3-2)[nH]1)C1C[C@@H](C)O[C@@H](C)C1 (stereo partly shown) [Compound 376]
IC50 (HCV replicon 1AQ30D; [1]): 0.0424 nM
IC50 (HCV replicon 1B; Hepatitis C virus, replicon 1B): 2.9 pM
IC50 (HCV replicon 2B; [2]): 0.006 nM
IC50 (HCV replicon 1A; Hepatitis C virus, replicon 1A): 2.6 pM
IC50 (HCV replicon 1AY93H; [3]): 0.0023 nM

COC(=O)NC(C(=O)N1CCC[C@H]1c1ncc(-c2ccc3c(c2)cc2n3C(c3ccc(C4CC4)s3)Oc3cc(-c4cnc([C@@H]5CCCN5C(=O)[C@@H](NC(=O)OC)C(C)C)[nH]4)cc(F)c3-2)[nH]1)C1CCCCO1 (single isomer, unassigned) [Compound 342]
IC50 (HCV replicon 1AQ30D; [4]): 1.07 nM
IC50 (HCV replicon 1B; replicon 1B): 2.6 pM
IC50 (HCV replicon 2B; read-out: 2B IC50, replicon 2B): 0.166 nM
IC50 (HCV replicon 1A; replicon 1A): 1.6 pM
IC50 (HCV replicon 1AY93H; [5]): 0.069 nM

COC(=O)N[C@H](C(=O)N1CCC[C@H]1c1ncc(-c2cc(C)c3c(c2)OC(c2cc4c(s2)CCC4)n2c-3cc3cc(-c4cnc([C@@H]5CCCN5C(=O)[C@@H](NC(=O)OC)C5C[C@@H](C)O[C@@H](C)C5)[nH]4)ccc32)[nH]1)C(C)C (single isomer, unassigned) [Compound 548]
IC50 (HCV replicon 1AQ30D; [9]): 1.4 nM
IC50 (HCV replicon 1B; [10]): 9.68 pM
IC50 (HCV replicon 2B; [7]): 0.0231 nM
IC50 (HCV replicon 1A; HCV replicon 1A): 7.58 pM
IC50 (HCV replicon 1AY93H; [8]): 0.0658 nM

COC(=O)NC(C(=O)N1[C@@H]2C[C@@H]2C[C@H]1c1ncc(-c2ccc3c(c2)cc2n3C(c3ccc(C(F)F)s3)Oc3cc(-c4cnc([C@@H]5CCCN5C(=O)[C@@H](NC(=O)OC)C(C)C)[nH]4)cc(F)c3-2)[nH]1)C1CCOC(C)(C)C1 (single isomer, unassigned) [Compound 415]
IC50 (HCV replicon 1AQ30D; [9]): 0.0424 nM
IC50 (HCV replicon 1B; [10]): 2.4 pM
IC50 (HCV replicon 2B; [7]): 0.0126 nM
IC50 (HCV replicon 1A; HCV replicon 1A): 2.3 pM
IC50 (HCV replicon 1AY93H; [8]): 0.0042 nM

COC(=O)N[C@H](C(=O)N1CCC[C@H]1c1nc(-c2cc(F)c3c(c2)OC(c2ccc(C4CC4)s2)n2c-3cc3cc(-c4cnc([C@@H]5CCCN5C(=O)[C@@H](NC(=O)OC)C5C[C@@H](C)O[C@@H](C)C5)[nH]4)ccc32)c[nH]1)C(C)C (stereo partly shown) [Compound 190]
IC50 (HCV replicon 1AQ30D; [1]): 0.013 nM
IC50 (HCV replicon 1B; Hepatitis C virus, replicon 1B): 1.4 pM
IC50 (HCV replicon 2B; [2]): 0.003 nM
IC50 (HCV replicon 1A; Hepatitis C virus, replicon 1A): 1.1 pM
IC50 (HCV replicon 1AY93H; [3]): 0.002 nM

COC(=O)NC(C(=O)N1CCC[C@H]1c1ncc(-c2ccc3c(c2)cc2n3C(c3cc4ccccc4s3)Oc3cc(-c4cnc([C@@H]5CCCN5C(=O)[C@@H](NC(=O)OC)C5CCOCC5)[nH]4)cc(F)c3-2)[nH]1)C(C)(C)F (single isomer, unassigned) [Compound 182]
IC50 (HCV replicon 1AQ30D; [4]): 0.049 nM
IC50 (HCV replicon 1B; Hepatitis C virus, replicon 1B): 2 pM
IC50 (HCV replicon 2B; read-out: 2B IC50, replicon 2B): 0.005 nM
IC50 (HCV replicon 1A; replicon 1A): 2 pM
IC50 (HCV replicon 1AY93H; [5]): 0.044 nM

CCc1ccc(C2Oc3cc(-c4cnc([C@@H]5CCCN5C(=O)[C@@H](NC(=O)OC)C(C)C)[nH]4)cc(C)c3-c3cc4cc(-c5cnc([C@@H]6CCCN6C(=O)C(NC(=O)OC)C6C[C@@H](C)O[C@H](C)C6)[nH]5)ccc4n32)s1 (single isomer, unassigned) [Compound 545]
IC50 (HCV replicon 1AQ30D; [9]): 0.11 nM
IC50 (HCV replicon 1B; [10]): 5.98 pM
IC50 (HCV replicon 2B; [7]): 0.00645 nM
IC50 (HCV replicon 1A; HCV replicon 1A): 3.55 pM
IC50 (HCV replicon 1AY93H; [8]): 0.024 nM

COC(=O)N[C@H](C(=O)N1CCC[C@H]1c1ncc(-c2cc(F)c3c(c2)OC(c2ccc(CC4CC4)s2)n2c-3cc3cc(-c4cnc([C@@H]5CCCN5C(=O)[C@@H](NC(=O)OC)C(C)C)[nH]4)ccc32)[nH]1)C(C)C (single isomer, unassigned) [Compound 54]
IC50 (HCV replicon 1AQ30D; replicon 1AQ30D, read-out: 1A Q30D IC50): 0.2 nM
IC50 (HCV replicon 1B; replicon 1B): 1.2 pM
IC50 (HCV replicon 2B; replicon 2B, read-out: 2B IC50): 0.03 nM
IC50 (HCV replicon 1A; replicon 1A): 2 pM
IC50 (HCV replicon 1AY93H; replicon 1AY93H, read-out: 1A Y93H IC50): 0.005 nM

CCc1ccc(C2Oc3cc(-c4cnc([C@@H]5CCCN5C(=O)[C@@H](NC(=O)OC)C(C)C)[nH]4)ccc3-c3c(F)c4cc(-c5cnc([C@@H]6CCCN6C(=O)C(NC(=O)OC)C6C[C@@H](C)O[C@@H](C)C6)[nH]5)ccc4n32)s1 (single isomer, unassigned) [Compound 635]
IC50 (HCV replicon 1AQ30D; [6]): 0.744 nM
IC50 (HCV replicon 1B; HCV replicon 1B): 2.4 pM
IC50 (HCV replicon 2B; [7]): 0.0225 nM
IC50 (HCV replicon 1A; HCV replicon 1A): 2.4 pM
IC50 (HCV replicon 1AY93H; [8]): 0.0272 nM

From patent publication US20160257697A1, “THIOPHENE-SUBSTITUTED TETRACYCLIC COMPOUNDS AND METHODS OFUSE THEREOF FOR THE TREATMENT OF VIRAL DISEASES” (priority 2013, published 2016)
